Data set [1] deals with CTGF expression in MRC-5 cells. The experiment in a line: MRC-5 fibrosis assay, TGF-β stimulated (Western blot). The class given is cell-based. How it is done:
(§1) After 20 h growth in the reduced serum medium, the cells were treated with indicated doses of compounds for 30 minutes. Subsequently, the cells were stimulated with 10 ng/mL TGF-β (R&D Systems, 240-B-002) for 48 or 72 hours.

Data set [2] relates to α-actin expression in MRC-5 cells. Described as above. The class given is cell-based. How it is done: as §1
Data set [3] has as its system CTGF production in LX-2 cells. The experiment in a line: LX-2 fibrosis assay, TGF-β stimulated (Western blot). The class given is cell-based, human. How it is done: (§2) Collagen α1, α-SMA, CTGF and GAPDH were traced using Western blot analysis. DMSO and SB-525334 were used as negative and positive controls, respectively.
(§3) Human hepatic stellate cells LX-2 were grown in DMEM (Invitrogen, 11960) supplied with 1% MEM Non-Essential Amino Acids (Invitrogen, 11140-050), 2% fetal bovine serum (Hyclone, SV30087.03), Penicillin (100 U/mL)-streptomycin (100 μg/mL) (Millipore, TMS-AB2-C) and 2 mM L-Glutamine (Invitrogen, 25030-001). After the cells grew in 12-well plates for 24 h, the cell culture medium was changed to the same as above except using 0.4% fetal bovine serum. After 20 h growth in the reduced serum medium, the cells were treated with indicated doses of compounds for 30 minutes. Subsequently, the cells were stimulated with 4 ng/mL TGF-β (R&D Systems, 240-B-002) for 48 h. The cells were rinsed twice with DPBS before being harvested with 100 μL RIPA buffer (Sigma, R0278) supplemented with protease inhibitor cocktail (Roche, 04693132001) at 4° C. The total protein in each sample was quantified using BCA Protein Assay Kit (Pierce™, 23227) and equal amount of total protein of each sample was subject to Western blot analysis. Antibodies used were mouse anti-α-Actin (SPM332) (sc-365970), mouse anti-CTGF (E5) (sc-365970), and mouse anti-collagen al (3G3) (sc-293182), from Santa Cruz Biotechnologies; and mouse anti-GAPDH (6C5) (EMD Millipore, MAB374).
For orientation: Immunoblotting shows a protein as a band on a membrane.

The subject of data set [4] is collagen α1 production in LX-2 cells. The description is as above. The class given is cell-based, human. As for the experimental part: as §2, §3
For the next data set, the target named is T1, CYP1A2 (Homo sapiens, UniProt P05177).
T1 construct: from tissue; host or cells: human liver microsomes (HLM)
T1 sequence (P05177 1-516): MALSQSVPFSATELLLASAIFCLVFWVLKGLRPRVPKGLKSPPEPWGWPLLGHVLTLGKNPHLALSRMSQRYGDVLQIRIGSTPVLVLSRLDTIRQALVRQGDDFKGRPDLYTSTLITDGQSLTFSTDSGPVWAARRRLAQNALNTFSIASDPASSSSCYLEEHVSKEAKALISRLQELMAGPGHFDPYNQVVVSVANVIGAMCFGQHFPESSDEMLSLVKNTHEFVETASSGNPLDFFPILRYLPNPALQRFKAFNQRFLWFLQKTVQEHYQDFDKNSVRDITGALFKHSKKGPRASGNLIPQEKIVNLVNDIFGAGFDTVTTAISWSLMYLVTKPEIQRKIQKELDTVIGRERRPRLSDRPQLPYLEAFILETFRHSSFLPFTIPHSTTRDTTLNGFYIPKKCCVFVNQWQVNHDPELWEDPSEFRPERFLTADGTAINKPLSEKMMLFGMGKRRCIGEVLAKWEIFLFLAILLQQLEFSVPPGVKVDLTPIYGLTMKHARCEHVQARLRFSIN
The experiment in a line: Cytochrome inhibition in HLM. The class given is in vitro ADME. As for the experimental part:
(§4) Water used in the assay and analysis was purified by ELGA Lab purification systems. Potassium phosphate buffer (PB) in concentration of 100 mM and MgCl2 in concentration of 33 mM were used. […] Microsomes were pulled out of the −80° C. freezer to thaw on ice, labeled the date and put back to freezer immediately after using. 20 μL of the substrates solutions were added to corresponding wells. 20 μL PB were added to Blank wells. 2 μL of the test compounds and positive control working solution were added to corresponding wells. Then, HLM working solution was prepared. 158 μL of the HLM working solution was added to all wells of incubation plate. The plate was pre-warmed for about 10 min at 37° C. water bath. Then, NADPH cofactor solution was prepared. 20 μL NADPH cofactor was added to all incubation wells. The solution was mixed and incubated for 10 minutes at 37° C. water bath. At the time point, the reaction was terminated by adding 400 μL cold stop solution (200 ng/mL Tolbutamide and 200 ng/mL Labetalol in ACN). The samples were centrifuged at 4000 rpm for 20 minutes to precipitate protein. 200 μL supernatant was transferred to 100 μL HPLC water and shaken for 10 min. XL fit was used to plot the percent of vehicle control versus the test compound concentrations, and for non-linear regression analysis of the data.

In a further data set the target is T2, CYP2C19 (Homo sapiens, UniProt P33261).
T2 construct: from tissue; host or cells: human liver microsomes (HLM)
The experiment in a line: Cytochrome inhibition in HLM. Format: in vitro ADME. As for the experimental part:
as §4, with “data. IC50 values were determined using 3- or 4-parameter logistic equation.” for “data.”

A further data set deals with T3, CYP2C9 (Homo sapiens, UniProt P11712).
T3 construct: from tissue; host or cells: human liver microsomes (HLM)
The experiment in a line: Cytochrome inhibition in HLM. The class given is in vitro ADME. How it is done: as §4, with “data. IC50 values were determined using 3- or 4-parameter logistic equation.” for “data.”

The next data set addresses T4, CYP2D6 (Homo sapiens, UniProt P10635).
T4 construct: from tissue; host or cells: human liver microsomes (HLM)
The experiment in a line: Cytochrome inhibition in HLM. Format: in vitro ADME. As for the experimental part: as §4, with “data. IC50 values were determined using 3- or 4-parameter logistic equation.” for “data.”

A further data set deals with T5, CYP3A4-M (Homo sapiens, UniProt P08684).
T5 construct: from tissue; host or cells: human liver microsomes (HLM)
The experiment in a line: Cytochrome inhibition in HLM. The class given is in vitro ADME. How it is done:
as §4, with “data. IC50 values were determined using 3- or 4-parameter logistic equation.” for “data.”

Each structure is given as a SMILES string. Read-outs that look alike come from different tables or passages of the source.

As usually defined, the IC50 is the concentration at which inhibition is half-maximal.

T3 sequence (P11712 whole entry): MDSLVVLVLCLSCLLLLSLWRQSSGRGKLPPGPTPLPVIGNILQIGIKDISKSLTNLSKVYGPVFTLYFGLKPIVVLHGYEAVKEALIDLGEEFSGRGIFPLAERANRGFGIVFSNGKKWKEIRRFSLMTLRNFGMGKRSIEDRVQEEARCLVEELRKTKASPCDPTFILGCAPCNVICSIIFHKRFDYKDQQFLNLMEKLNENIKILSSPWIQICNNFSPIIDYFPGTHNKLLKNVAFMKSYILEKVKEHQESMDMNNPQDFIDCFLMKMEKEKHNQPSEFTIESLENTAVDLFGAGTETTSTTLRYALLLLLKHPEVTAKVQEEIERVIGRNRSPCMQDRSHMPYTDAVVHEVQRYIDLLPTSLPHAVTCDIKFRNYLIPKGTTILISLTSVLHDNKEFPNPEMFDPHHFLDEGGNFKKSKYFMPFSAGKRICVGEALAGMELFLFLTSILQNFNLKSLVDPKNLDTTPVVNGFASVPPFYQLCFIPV
T2 sequence (P33261 whole entry): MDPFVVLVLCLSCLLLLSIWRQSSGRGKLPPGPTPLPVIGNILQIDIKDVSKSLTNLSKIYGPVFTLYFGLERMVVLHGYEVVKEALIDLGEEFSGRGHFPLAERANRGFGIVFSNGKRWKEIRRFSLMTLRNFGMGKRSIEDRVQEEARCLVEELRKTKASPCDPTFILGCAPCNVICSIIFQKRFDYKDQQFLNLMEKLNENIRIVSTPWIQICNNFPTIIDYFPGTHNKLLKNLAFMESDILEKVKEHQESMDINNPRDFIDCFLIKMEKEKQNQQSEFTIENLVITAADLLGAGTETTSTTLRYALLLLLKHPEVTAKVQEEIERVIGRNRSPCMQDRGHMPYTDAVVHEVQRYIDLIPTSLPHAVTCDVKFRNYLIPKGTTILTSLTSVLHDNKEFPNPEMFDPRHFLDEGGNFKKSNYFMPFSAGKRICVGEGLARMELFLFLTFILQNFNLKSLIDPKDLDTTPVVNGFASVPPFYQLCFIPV
T4 sequence (P10635 whole entry): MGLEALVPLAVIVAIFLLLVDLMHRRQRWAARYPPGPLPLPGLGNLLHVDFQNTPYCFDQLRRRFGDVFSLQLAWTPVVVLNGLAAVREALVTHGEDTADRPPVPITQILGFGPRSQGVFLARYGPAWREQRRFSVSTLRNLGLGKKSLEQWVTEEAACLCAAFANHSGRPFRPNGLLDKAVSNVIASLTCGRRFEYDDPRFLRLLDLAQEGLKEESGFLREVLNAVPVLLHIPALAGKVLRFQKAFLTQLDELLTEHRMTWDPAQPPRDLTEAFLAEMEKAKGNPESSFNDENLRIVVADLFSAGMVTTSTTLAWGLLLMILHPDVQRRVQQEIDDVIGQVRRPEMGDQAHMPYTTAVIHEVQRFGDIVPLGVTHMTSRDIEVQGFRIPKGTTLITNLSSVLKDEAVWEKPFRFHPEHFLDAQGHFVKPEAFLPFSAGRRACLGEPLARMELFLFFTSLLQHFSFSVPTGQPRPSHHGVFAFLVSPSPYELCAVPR
T5 sequence (P08684 whole entry): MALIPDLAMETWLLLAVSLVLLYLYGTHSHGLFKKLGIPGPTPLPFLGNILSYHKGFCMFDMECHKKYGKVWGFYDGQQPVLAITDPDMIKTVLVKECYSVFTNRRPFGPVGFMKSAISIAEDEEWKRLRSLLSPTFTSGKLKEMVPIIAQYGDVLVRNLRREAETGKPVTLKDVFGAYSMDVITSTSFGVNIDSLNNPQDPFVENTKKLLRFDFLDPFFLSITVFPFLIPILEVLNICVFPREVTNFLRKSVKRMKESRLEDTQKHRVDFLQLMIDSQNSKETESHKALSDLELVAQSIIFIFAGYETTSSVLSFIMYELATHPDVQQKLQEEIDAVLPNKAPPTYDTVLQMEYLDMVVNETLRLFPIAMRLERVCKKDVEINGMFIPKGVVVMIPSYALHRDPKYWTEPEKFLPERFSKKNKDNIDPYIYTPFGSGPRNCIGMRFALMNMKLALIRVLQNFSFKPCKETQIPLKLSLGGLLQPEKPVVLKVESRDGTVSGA

On to `O=C(Nc1cccc(C(=O)N2CCN(c3ccnc4[nH]ccc34)C2)c1)c1cccc(C(F)(F)F)c1` [Compound 2], for which the “concentration of highest activity in CTGF assay (close to negative control)” value in data set [1] (MRC-5) is 0.041 µM. The “concentration of maximum inhibition of α-actin expression” value in data set [2] (MRC-5) came out at 0.37 µM. For the same compound, the “maximum effect on α-actin expression” value in data set [2] (at 0.37 μM) worked out at 1.5 fold. The CTGF production prevented in data set [3] (14 nM) amounted to 43%. The IC50 is over 10 µM in data set [4] (LX-2 cells, read-out: IC50, collagen assay); 10.6 µM against CYP1A2; 6.56 µM against CYP2C19; 2.7 µM on CYP2C9; 6.97 µM at CYP2D6; 7.36 µM against CYP3A4-M.
Turning to `Cc1ccc2c(Nc3cccc(C(F)(F)F)c3)noc2c1C#Cc1cnc2cccnn12` [Compound 1], the “effect on CTGF expression” value in [1] (all the concentrations used) is listed as “no inhibition potency”. In data set [2] (MRC-5), the “dose dependence of effect on α-actin expression” value is given as “robust dose-dependent effect”. In addition, the “effect in CTGF assay” value in [3] (LX-2 cells) is “did not show the inhibition effect”. The IC50 in [4] (TGF-β stimulated LX-2 cells, normalized to GAPDH, read-out: IC50, collagen production) is 0.013 µM; at CYP1A2, 7.36 µM; on CYP2C19, over 50 µM; against CYP2C9, over 50 µM; against CYP2D6, over 50 µM; against CYP3A4-M it was over 50 µM.

For the origin of these results see patent US12293809B2, “Workflow for generating compounds with biological activity against a specific biological target” (INSILICO MEDICINE IP LIMITED, priority 2019, dated 2025).
